Tested on: adult patients diagnosed with MDD
Experiment: Eight-week randomized, double-blind, placebo-controlled study: association of sequenced gene markers (Tables 1-17) with vilazodone response as change of MADRS
Format: in vivo, human
Conditions: mean MADRS decrease
Excerpt: There was a wide range of inter-individual variability in response to vilazodone as well as to placebo and the active comparators. This variability may be partially due to genetic differences among the individuals treated. This example illustrates a randomized, double-blind, placebo-controlled, multicenter, eight-week study designed to discover genetic markers of response to vilazodone in adult patients diagnosed with MDD by the DSM-IV-TR criteria. Patients must have met all of the following inclusion criteria to be considered for enrollment in the study: (1) 18-65 years of age; (2) diagnosis of MDD, single episode or recurrent, according to DSM-IV-TR (296.2/296.3) with a current Major Depressive Episode of less than one year's duration with a minimum duration of at least 4 weeks; (3) HAM-D score≧22 on the first 17 items of the 21-item HAM-D at screening and baseline visits; (4) HAM-D item 1 (depressed mood) score≧2 at the screening visit and the baseline visit; (5) provision of written informed consent to participate; and (6) ability to speak, read and understand English and to respond to questions and follow simple instructions.
Following randomization into vilazodone and placebo groups, patients began the forced titration schedule. Patients received 10 mg qd until Visit 3 (approximately Day 7). At Visit 3 patients received 20 mg qd until Visit 4 (approximately Day 14). At Visit 4 patients received the target dose of 40 mg qd (approximately Day 15). A total of 152 patients completed the vilazodone arm, while 154 patients completed the placebo arm.
This example illustrates genotyping of the study group for the ACE, ATP5C3, BCL2L1, CYP2C9, DRD3, FOS, DTNBP1, GABRG3, GRIA4, LAMA4, MAPK1, NPY1R, OPRD1, OPRM1, PER3, PLCB1, and PSMD1 polymorphic sites selected by the inventors herein for analysis. Genomic DNA was isolated from blood obtained from each individual and amplified target regions containing the polymorphic sites in Tables A-21 to A-37 (Appendix A) were sequenced to determine the genotypes at these polymorphic sites. Tailed (Universal M13 Forward and Reverse) PCR primers were designed using the sequence of SEQ ID NO:1 for ACE, SEQ ID NO:2 for ATP5C3, SEQ ID NO:3 for BCL2L1, SEQ ID NO:4 for CYP2C9, SEQ ID NO:5 for DRD3, SEQ ID NO:6 for FOS, SEQ ID NO:7 for DTNBP1, SEQ ID NO:8 for GABRG3, SEQ ID NO:9 for GRIA4, SEQ ID NO:10 for LAMA4, SEQ ID NO:11 for MAPK1, SEQ ID NO:12 for NPY1R, SEQ ID NO:13 for OPRD1, SEQ ID NO:14 for OPRM1, SEQ ID NO:15 for PER3, SEQ ID NO:16 for PLCB1, and SEQ ID NO:17 for PSMD1. Amplified PCR products were sequenced using Applied Biosystems' Big Dye® Terminator v 3.1 cycle sequencing kit according to manufacturer's instructions. The reaction products were then electrophoresed using an Applied Biosystems 3700 or 3730xl DNA analyzer. Polymorphisms were identified using the Polyphred program, and confirmed by visual inspection.
Haplotypes were estimated from the unphased genotypes using a computer-implemented algorithm for assigning haplotypes to unrelated individuals in a population sample, essentially as described in WO 01/80156. In this method, haplotypes are assigned directly from individuals who are homozygous at all sites or heterozygous at no more than one of the variable sites. This list of haplotypes is then used to deconvolute the unphased genotypes in the remaining (multiply heterozygous) individuals.
This example illustrates analysis of the markers in Tables A-1 to A-17 (Appendix A) for association with vilazodone response. A proprietary algorithm was used as a tool for finding associations between markers and outcomes. The clinical outcomes were improvement in disease over eight weeks of treatment with vilazodone as measured by the MADRS scale. A linear model was first fitted on the covariates, which were treatment center, race, ethnicity, and baseline values. […]

[1] = PLCB1 marker 1, carriers vs non-carriers
[2] = PLCB1 marker 2, carriers vs non-carriers
[3] = PLCB1 marker 3, carriers vs non-carriers
[4] = PLCB1 marker 4, carriers vs non-carriers
[5] = PLCB1 marker 5, carriers vs non-carriers
[6] = PLCB1 marker 6, carriers vs non-carriers
[7] = PLCB1 marker 7, carriers vs non-carriers
[8] = PLCB1 marker 8, carriers vs non-carriers
[9] = PLCB1 marker 9, carriers vs non-carriers
[10] = PLCB1 marker 10, carriers vs non-carriers
[11] = PLCB1 marker 11, carriers vs non-carriers
[12] = PLCB1 marker 12, carriers vs non-carriers
[13] = PLCB1 marker 13, carriers vs non-carriers
[14] = PLCB1 marker 17, carriers vs non-carriers
[15] = PLCB1 marker 18, carriers vs non-carriers
[16] = PLCB1 marker 19, carriers vs non-carriers
[17] = PLCB1 marker 20, carriers vs non-carriers
[18] = PLCB1 marker 21, carriers vs non-carriers
[19] = PLCB1 marker 22, carriers vs non-carriers
[20] = PLCB1 marker 23, carriers vs non-carriers
[21] = PLCB1 marker 24, carriers vs non-carriers
[22] = PLCB1 marker 25, carriers vs non-carriers
[23] = PLCB1 marker 26, carriers vs non-carriers
[24] = PLCB1 marker 27, carriers vs non-carriers
[25] = PLCB1 marker 28, carriers vs non-carriers
[26] = PLCB1 marker 29, carriers vs non-carriers
[27] = PLCB1 marker 30, carriers vs non-carriers
[28] = PLCB1 marker 31, carriers vs non-carriers
[29] = PLCB1 marker 32, carriers vs non-carriers
[30] = PLCB1 marker 33, carriers vs non-carriers
[31] = PLCB1 marker 34, carriers vs non-carriers
[32] = PLCB1 marker 35, carriers vs non-carriers
[33] = PLCB1 marker 36, carriers vs non-carriers
[34] = PLCB1 marker 37, carriers vs non-carriers
[35] = PLCB1 marker 38, carriers vs non-carriers
[36] = PLCB1 marker 39, carriers vs non-carriers
[37] = PLCB1 marker 40, carriers vs non-carriers
[38] = PLCB1 marker 41, carriers vs non-carriers
[39] = PLCB1 marker 42, carriers vs non-carriers
[40] = PLCB1 marker 43, carriers vs non-carriers
[41] = PLCB1 marker 44, carriers vs non-carriers
[42] = PLCB1 marker 45, carriers vs non-carriers
[43] = PLCB1 marker 46, carriers vs non-carriers
[44] = PLCB1 marker 47, carriers vs non-carriers
[45] = PLCB1 marker 48, carriers vs non-carriers
[46] = PLCB1 marker 49, carriers vs non-carriers
[47] = PLCB1 marker 50, carriers vs non-carriers
[48] = PLCB1 marker 51, carriers vs non-carriers
[49] = PLCB1 marker 52, carriers vs non-carriers
[50] = PLCB1 marker 53, carriers vs non-carriers

Cl.N#Cc1ccc2[nH]cc(CCCCN3CCN(c4ccc5oc(C(N)=O)cc5c4)CC3)c2c1 [Vilazodone, 5-{4-[4-(5-Cyano-3-indolyl)-butyl]-1-piperazinyl}-benzofuran-2-carboxamide hydrochloride]
Response difference (Cauc. only) [1]: −6.1 | Response difference (all ethnic.) [1]: −4.8 | Response difference (Cauc. only) [2]: −6.2 | Response difference (all ethnic.) [2]: −4.8 | Response difference (Cauc. only) [3]: −6.5 | Response difference (all ethnic.) [3]: −5.1 | Response difference (Cauc. only) [4]: −6.6 | Response difference (all ethnic.) [4]: −5.1 | Response difference (Cauc. only) [5]: −5.9 | Response difference (all ethnic.) [5]: −4.3 | Response difference (Cauc. only) [6]: −6 | Response difference (all ethnic.) [6]: −4.3 | Response difference (Cauc. only) [7]: −5.4 | Response difference (all ethnic.) [7]: −3.9 | Response difference (Cauc. only) [8]: −6 | Response difference (all ethnic.) [8]: −4.3 | Response difference (Cauc. only) [9]: −6.4 | Response difference (all ethnic.) [9]: −5.1 | Response difference (Cauc. only) [10]: −5.8 | Response difference (all ethnic.) [10]: −4.6 | Response difference (Cauc. only) [11]: −6.4 | Response difference (all ethnic.) [11]: −5.2 | Response difference (Cauc. only) [12]: −7 | Response difference (all ethnic.) [12]: −5.6 | Response difference (Cauc. only) [13]: −6.2 | Response difference (all ethnic.) [13]: −4.9 | Response difference (Cauc. only) [14]: −6 | Response difference (all ethnic.) [14]: −4.7 | Response difference (Cauc. only) [15]: −6 | Response difference (all ethnic.) [15]: −4.7 | Response difference (Cauc. only) [16]: −6.6 | Response difference (all ethnic.) [16]: −4.6 | Response difference (Cauc. only) [17]: −6.7 | Response difference (all ethnic.) [17]: −4.7 | Response difference (Cauc. only) [18]: −5.9 | Response difference (all ethnic.) [18]: −4.2 | Response difference (Cauc. only) [19]: −6.7 | Response difference (all ethnic.) [19]: −4.7 | Response difference (Cauc. only) [20]: −6.1 | Response difference (all ethnic.) [20]: −4.8 | Response difference (Cauc. only) [21]: −6.2 | Response difference (all ethnic.) [21]: −4.8 | Response difference (Cauc. only) [22]: −6.5 | Response difference (all ethnic.) [22]: −5.1 | Response difference (Cauc. only) [23]: −6.5 | Response difference (all ethnic.) [23]: −5.1 | Response difference (Cauc. only) [24]: −6.5 | Response difference (all ethnic.) [24]: −5.1 | Response difference (Cauc. only) [25]: −6.5 | Response difference (all ethnic.) [25]: −5.1 | Response difference (Cauc. only) [26]: −6.5 | Response difference (all ethnic.) [26]: −5.1 | Response difference (Cauc. only) [27]: −6.5 | Response difference (all ethnic.) [27]: −5.1 | Response difference (Cauc. only) [28]: −6.5 | Response difference (all ethnic.) [28]: −5.1 | Response difference (Cauc. only) [29]: −6.5 | Response difference (all ethnic.) [29]: −5.1 | Response difference (Cauc. only) [30]: −6.5 | Response difference (all ethnic.) [30]: −5.1 | Response difference (Cauc. only) [31]: −6.5 | Response difference (all ethnic.) [31]: −5.1 | Response difference (Cauc. only) [32]: −6.5 | Response difference (all ethnic.) [32]: −5.1 | Response difference (Cauc. only) [33]: −6.5 | Response difference (all ethnic.) [33]: −5.1 | Response difference (Cauc. only) [34]: −6.5 | Response difference (all ethnic.) [34]: −5.1 | Response difference (Cauc. only) [35]: −6.5 | Response difference (all ethnic.) [35]: −5.1 | Response difference (Cauc. only) [36]: −6.5 | Response difference (all ethnic.) [36]: −5.1 | Response difference (Cauc. only) [37]: −6.6 | Response difference (all ethnic.) [37]: −5.1 | Response difference (Cauc. only) [38]: −6.6 | Response difference (all ethnic.) [38]: −5.1 | Response difference (Cauc. only) [39]: −6.6 | Response difference (all ethnic.) [39]: −5.1 | Response difference (Cauc. only) [40]: −6.6 | Response difference (all ethnic.) [40]: −5.1 | Response difference (Cauc. only) [41]: −6.6 | Response difference (all ethnic.) [41]: −5.1 | Response difference (Cauc. only) [42]: −6.6 | Response difference (all ethnic.) [42]: −5.1 | Response difference (Cauc. only) [43]: −6.6 | Response difference (all ethnic.) [43]: −5.1 | Response difference (Cauc. only) [44]: −6.6 | Response difference (all ethnic.) [44]: −5.1 | Response difference (Cauc. only) [45]: −6.6 | Response difference (all ethnic.) [45]: −5.1 | Response difference (Cauc. only) [46]: −6.6 | Response difference (all ethnic.) [46]: −5.1 | Response difference (Cauc. only) [47]: −6.6 | Response difference (all ethnic.) [47]: −5.1 | Response difference (Cauc. only) [48]: −6.6 | Response difference (all ethnic.) [48]: −5.1 | Response difference (Cauc. only) [49]: −6.6 | Response difference (all ethnic.) [49]: −5.1 | Response difference (Cauc. only) [50]: −6.6 | Response difference (all ethnic.) [50]: −5.1

From patent publication US20090233942A1, “Genetic markers associated with response to antidepressants” (priority 2008, published 2009)
